According to patent US10174065B2, “Antidiabetic enolic glucoside of phenylpyruvic acid” (ZADEC APS, priority 2010, dated 2019):

Assays:
[1] = system: Chang cells; experiment: 2-deoxy-[3H]-D-glucose uptake assay; format: cell-based; conditions: Chang cell cultures, 3 hrs exposure
Protocol: The glucose uptake of RX-1 and selected analogues after administration of test compounds to Chang cell cultures were determined in an operating protocol for the 2-deoxy-[^3H]-D-glucose. The protocol, which is described in more detail below, has been designed to test for the RX-1 (and RX-1 analogues) mediated glucose uptake. In Table the EC50 values for the uptake for RX-1 and representative analogues is shown.
Stock solutions of the RX-1 analogues supplied in cryo vials (DrugMode) was prepared by diluting the compound with […] sterile tissue culture grade water. This will yield a 5 mM stock solution. If the analogue […] an additional 50 μl methanol will be added (this will be recorded clearly on the log sheet). This will yield a 4 mM stock solution. Stock solutions will be kept on ice at all times and analogues will be stored in 20 μl aliquots at −80 C for subsequent use. Tubes that have been thawed will be clearly marked on the label.
RX-1 (10 μM) Positive Control Solution • To prepare a 10 μM RX-1 solution as positive control. Add 30 μl to 2970 μl modified DMEM media supplemented with 8 mM glucose.
RX-1 Analogue (31.6 μM) Test Solutions • To prepare a 31.6 μM RX-1 analogue test solution. Add 19 μl of the 5 mM to 2981 μl modified DMEM media supplemented with 8 mM glucose. To prepare a 31.6 μM RX-1 analogue test solution from a 4 mM stock solution, add 24 μl to 2976 μl modified DMEM media supplemented with 8 mM glucose.
Cell Seeding in 24-Well Plates • Chang cells are cultured according to procedures described in MRC cell culture SOPs: TC-B2a Thawing of cells and TC-B1a Cell line maintenance—general principles. Make sure cells are in the log phase (i.e. <70% confluence) and less than 20 passages. • Harvest cells using 0.25% (w/v) Trypsin/0.53 mM EDTA solution. • Count cells and resuspend to 30 000 cells/ml (Chang cell seeding density for 24-well plate=30 000 cells/ml) in EMEM (with pyruvate and NEAA, but without L-glutamate (Lonza, USA) containing 10% FBS (Gibco, UK) and pipette 1 ml/well cell suspension to a 24-well plate corresponding to 30 000 cells/well.
• after 3 days of cell growth, aspirate medium • wash cells once with pre-warmed DPBS at 37° C. • add 500 μl of pre-warmed 37° C. DMEM/0.1% BSA (without phenol red, glucose and pyruvate) to serum starve cells to remove residual glucose and FBS • incubate at 37° C. in humidified air and 5% CO2 for 30 min • aspirate DMEM/0.1% BSA (without phenol red, glucose and pyruvate) • Prepare test dilutions as specified in the plate layout (see below) • add 500 μl pre-warmed 37° C. of test dilution per well according to plate layout • incubate at 37° C. in humidified air and 5% CO2 for 3 hrs • remove test medium and wash cells once with DPBS (37° C.) • add 250 μl of test medium containing 0.5 μCi/ml ^3H-2-DOG to each well use (0.5 μl ^3H to 1 ml medium) • Incubate cells at 37° C. in humidified air and 5% CO2 for 15 min • Aspirate medium • To stop the reaction, wash cells twice with ice-cold DPBS • Aspirate DPBS and ensure that wells are as dry as possible • Lyse cells by adding 1 ml of 0.3N NaOH/1% SDS and incubate at 37° C. for at least 45 min • Mix cell lysate thoroughly before subsequent use in LSC and Bradford protein determination

[2] = system: gene expression in muscle; experiment: Quantitative real-time PCR gene expression in muscle of obese, insulin resistant Wistar rats; format: in vivo
Protocol: Three week old male rats were fed a high fat diet for 24 weeks to induce obesity and insulin resistance. Thereafter, rats were treated with 0.3 mg/kg Rx-1 daily for two weeks, and then with 3 mg/kg Rx-1 daily for seven days. Fasting glucose concentrations were measured before treatment, after two weeks treatment with 0.3 mg/kg Rx-1 and then again after seven days treatment with 3 mg/kg Rx-1. After treatment with 3 mg/kg Rx-1 rats were terminated and liver, muscle and pancreas biopsies were taken. Quantitative real-time PCR was used to measure the expression of 12 genes in liver and muscle samples, and ten genes in pancreas samples.
Rats were housed at the Primate Unit (Medical Research Council, South Africa). Rat management including feeding, glucose measurements and terminations, were done according to standard operating procedures (Diabetes Discovery Platform, Medical Research Council). Briefly, three week old rats were fed a high fat diet for 24 weeks to induce T2D. The study group consisted of thirteen rats, eight rats were treated by daily gavage with 0.3 mg/kg Rx-1 for two weeks, and then with 3 mg/kg Rx-1 for seven days. Five rats were used as controls and were treated with water only for three weeks. Rats were terminated after treatment and liver, muscle and pancreas tissue harvested and stored in RNalater (Ambion) as recommended by the manufacturer. The study was approved by the ethics committee of the Medical Research Council of South Africa.
RNA extracted from liver, muscle and pancreas tissue was converted to cDNA using the High Capacity Reverse Transcription kit as recommended by the manufacturers (Applied Biosystems). In brief, 2 μg of DNase-treated RNA was added to nuclease-free water in a volume of 10 μl. Thereafter, 2 μl reaction buffer, 0.8 μl dNTPs, 2 μl random primers, 1 μl RNase-inhibitor, 1 μl reverse transcriptase, and 3.2 μl nuclease-free water were added. The same reaction without the reverse transcription enzyme (minus RT reaction) was set-up to investigate genomic DNA contamination. Reactions were incubated at 25° C. for 10 min, 37° C. for 120 min, and 85° C. for 5 s to inactivate the reverse transcriptase. cDNA samples were stored at −20° C. until expression analysis.
For analysis of gene expression, 25 ng of cDNA prepared from liver, muscle and pancreas was mixed with 12.5 μl Taqman universal PCR master mix (Applied Biosystems), 1.25 μl gene-specific primer and probe mixtures (predeveloped Taqman gene expression assays, Applied Biosystems), and H2O in a final volume of 25 μl. The suffix _m represents an assay whose probe spans an exon-exon junction of the associated gene and therefore will not detect genomic DNA, while the suffix _s represents an assay whose primers and probes are designed within a single exon, such assays will detect genomic DNA.
The PCR reactions were conducted on the ABI 7500 Sequence Detection System Instrument (Applied Biosystems) using universal cycling conditions as described before. All samples were run in duplicate. Data generated on the ABI 7500 Instrument were analysed with the ABI Relative Quantitation (RQ) software (SDS V1.4) using a Ct threshold of 0.1. Relative expression levels were determined by using the 2^−ΔΔCt method, where ΔΔCt=(Ctgene studied−Cthousekeeping gene)treated−(Ctgene studied−Cthousekeeping gene)control. The gene expression was normalised to housekeeping genes to correct for differences in cDNA loading. Two gene expression assays, β-actin (ActB) and glyceraldehyde-3-phosphate dehydrogenase (Gapdh) (Table 1) were used as endogenous controls. Relative gene expression data generated by the RQ software for each of the two endogenous controls individually or the data normalised to the average of the two endogenous controls were imported into Microsoft Excel and analysed. […]

EC50 [1]: 3.22 µM
Structure (SMILES): O=C(O)/C(=C/c1ccccc1)O[C@@H]1O[C@H](CO)[C@@H](O)[C@H](O)[C@H]1O [RX-1, 3-Phenyl-2-(3,4,5-trihydroxy-6-hydroxymethyl-tetrahydro-pyran-2-yloxy)-acrylic acid]
Gck mRNA levels [2]: decreased | Glut4 mRNA levels [2]: unaffected | IR gene expression [2]: did not affect | IRS1 mRNA levels [2]: unchanged | IRS2 mRNA levels [2]: unchanged | GcgR gene expression ([2]; not statistically significant): increased | SOCS1 mRNA expression ([2]; not statistically significant): increased | SOCS3 mRNA expression ([2]; not statistically significant): increased
